# Test results as given in US20050261264A1, “Rare-earth ternary complex” (priority 2000, published 2005).
# How the values were obtained:
# Assay type in all cases: physicochemical
# [1] = Miscibility with solvents, visual evaluation at 5 wt %; parameters: key: ⊚: dissolves at room temperature; ◯: dissolves when heated for 5 minutes at 40° C.; Δ: dissolves under heating, but cooling precipitates crystals; X: does not dissolve; details: complex added at 5 wt %
# Procedure: (§1) The miscibility of the rare earth complex with various media was evaluated as follows.
# 1) Miscibility with Solvents
# [2] = Miscibility with a polymer matrix, visual evaluation; parameters: key to Miscibility, PMMA: ⊚: dissolves up to 30 wt %; ◯: dissolves up to 5 wt %; Δ: disperses up to 5 wt %, but there is turbidity; X: repelled at the polymer surface
# Procedure: as §1
# 2) Miscibility with a Polymer Matrix
# The rare earth complex serving as the sample was added in the concentrations listed with the evaluation criteria below relative to various media, and the miscibility was visually evaluated according to the following criteria. • ⊚: dissolves up to 30 wt % • ◯: dissolves up to 5 wt % • Δ: disperses up to 5 wt %, but there is turbidity • X: repelled at the polymer surface
# [3] = Number of moles of bound water per mole of complex (TG-DTA); details: for Bound water (number of moles of bound water per mole of complex): Table 1, dried samples for the ternary complexes
# Procedure: The number of moles of bound water per mole of complex was measured using a TG-DTA 2000 from MAC Science.
# A 20 g quantity of Eu(PMS)3 was added to 100 mL of isopropanol, then 43 g ([…] the molar amount of the Eu(PMS)3) of triphenylphosphine oxide (hereinafter referred to as TPPO) was added, and the system was refluxed for 3 hours, and then gradually cooled. The resulting white powder was filtered off. The white powder thus obtained was washed with hot n-hexane, and recrystallized with water-methanol to obtain 44 g of Eu(PMS)3(TPPO)8 in the form of white acicular crystals (yield: 85%). The TG-DTA was measured for these crystals, and it was found from the weight reduction at 100° C. that the number of moles of bound water per mole of complex was 2.93. The IR, NMR, UV absorption characteristics, and elemental analysis results for the obtained Eu(PMS)3(TPPO)8(H2O)2.93 are given below.
# Eu(PMS)3(TPPO)8(H2O)2.93 obtained by the above synthesis method was dried in vacuo for 3 hours at 140° C. and a reduced pressure of […]. TG-DTA measurement for the resulting white powder was carried out to obtain a weight reduction at 100° C. It was found from the obtained value that the number of moles of bound water per mole of complex was 0.18.
# [4] = after drying in vacuo at 140° C.
# [5] = before drying (crystals as obtained), weight reduction at 100° C.
Compound,"Miscibility, Acetone [1]","Miscibility, Chloroform [1]","Miscibility, Toluene [1]","Miscibility, Water [1]","Miscibility, Epoxy resin [2]","Miscibility, Nafion [2]","Miscibility, PMMA [2]",Bound water (number of moles of bound water per mole of complex) [3],"Number of moles of bound water per mole of complex [3, 4]","Number of moles of bound water per mole of complex [3, 5]"
O=P(c1ccccc1)(c1ccccc1)c1ccccc1.O=P(c1ccccc1)(c1ccccc1)c1ccccc1.O=P(c1ccccc1)(c1ccccc1)c1ccccc1.O=P(c1ccccc1)(c1ccccc1)c1ccccc1.O=P(c1ccccc1)(c1ccccc1)c1ccccc1.O=P(c1ccccc1)(c1ccccc1)c1ccccc1.O=P(c1ccccc1)(c1ccccc1)c1ccccc1.O=P(c1ccccc1)(c1ccccc1)c1ccccc1.O=S(=O)([N-]S(=O)(=O)C(F)(F)F)C(F)(F)F.O=S(=O)([N-]S(=O)(=O)C(F)(F)F)C(F)(F)F.O=S(=O)([N-]S(=O)(=O)C(F)(F)F)C(F)(F)F.[Yb+3] [Yb(PMS)3(TPPO)8],⊚,⊚,◯,X,◯ (dissolves up to 5 wt %),◯ (dissolves up to 5 wt %),◯ (dissolves up to 5 wt %),0.27,0.27,1.52
O=P(c1ccccc1)(c1ccccc1)c1ccccc1.O=P(c1ccccc1)(c1ccccc1)c1ccccc1.O=P(c1ccccc1)(c1ccccc1)c1ccccc1.O=P(c1ccccc1)(c1ccccc1)c1ccccc1.O=P(c1ccccc1)(c1ccccc1)c1ccccc1.O=P(c1ccccc1)(c1ccccc1)c1ccccc1.O=P(c1ccccc1)(c1ccccc1)c1ccccc1.O=P(c1ccccc1)(c1ccccc1)c1ccccc1.O=S(=O)([N-]S(=O)(=O)C(F)(F)F)C(F)(F)F.O=S(=O)([N-]S(=O)(=O)C(F)(F)F)C(F)(F)F.O=S(=O)([N-]S(=O)(=O)C(F)(F)F)C(F)(F)F.[Tb+3] [Tb(PMS)3(TPPO)8],⊚,⊚,◯,X,◯ (dissolves up to 5 wt %),◯ (dissolves up to 5 wt %),◯ (dissolves up to 5 wt %),0.08,0.08,1.27
O=S(=O)([N-]S(=O)(=O)C(F)(F)F)C(F)(F)F.O=S(=O)([N-]S(=O)(=O)C(F)(F)F)C(F)(F)F.O=S(=O)([N-]S(=O)(=O)C(F)(F)F)C(F)(F)F.[Nd+3].c1cnc2c(c1)ccc1cccnc12.c1cnc2c(c1)ccc1cccnc12.c1cnc2c(c1)ccc1cccnc12.c1cnc2c(c1)ccc1cccnc12 [Nd(PMS)3(Phen)m],⊚,Δ,Δ,X,◯ (dissolves up to 5 wt %),◯ (dissolves up to 5 wt %),◯ (dissolves up to 5 wt %),0.00,,
"O=C(C=C([O-])C(F)(F)F)C(F)(F)F.O=C(C=C([O-])C(F)(F)F)C(F)(F)F.O=C(C=C([O-])C(F)(F)F)C(F)(F)F.[Nd+3] [Nd(HFA)3, reference compound]",⊚,X,X,X,◯ (dissolves up to 5 wt %),"Δ (disperses up to 5 wt %, but there is turbidity)",X,2.00,,
"O=C(C=C([O-])C(F)(F)F)C(F)(F)F.O=C(C=C([O-])C(F)(F)F)C(F)(F)F.O=C(C=C([O-])C(F)(F)F)C(F)(F)F.O=P(c1ccccc1)(c1ccccc1)c1ccccc1.O=P(c1ccccc1)(c1ccccc1)c1ccccc1.[Nd+3] [Nd(HFA)3(TPPO)2, reference compound]",⊚,◯,◯,X,◯ (dissolves up to 5 wt %),"Δ (disperses up to 5 wt %, but there is turbidity)","Δ (disperses up to 5 wt %, but there is turbidity)",0.00,,
O=P(c1ccccc1)(c1ccccc1)c1ccccc1.O=P(c1ccccc1)(c1ccccc1)c1ccccc1.O=P(c1ccccc1)(c1ccccc1)c1ccccc1.O=P(c1ccccc1)(c1ccccc1)c1ccccc1.O=P(c1ccccc1)(c1ccccc1)c1ccccc1.O=P(c1ccccc1)(c1ccccc1)c1ccccc1.O=P(c1ccccc1)(c1ccccc1)c1ccccc1.O=P(c1ccccc1)(c1ccccc1)c1ccccc1.O=S(=O)([N-]S(=O)(=O)C(F)(F)C(F)(F)F)C(F)(F)C(F)(F)F.O=S(=O)([N-]S(=O)(=O)C(F)(F)C(F)(F)F)C(F)(F)C(F)(F)F.O=S(=O)([N-]S(=O)(=O)C(F)(F)C(F)(F)F)C(F)(F)C(F)(F)F.[Eu+3] [Eu(PES)3(TPPO)8],⊚,⊚,◯,X,◯ (dissolves up to 5 wt %),◯ (dissolves up to 5 wt %),◯ (dissolves up to 5 wt %),0.19,0.19,
O=S(=O)([N-]S(=O)(=O)C(F)(F)F)C(F)(F)F.O=S(=O)([N-]S(=O)(=O)C(F)(F)F)C(F)(F)F.O=S(=O)([N-]S(=O)(=O)C(F)(F)F)C(F)(F)F.O=S(c1ccccc1)c1ccccc1.O=S(c1ccccc1)c1ccccc1.O=S(c1ccccc1)c1ccccc1.O=S(c1ccccc1)c1ccccc1.O=S(c1ccccc1)c1ccccc1.O=S(c1ccccc1)c1ccccc1.O=S(c1ccccc1)c1ccccc1.O=S(c1ccccc1)c1ccccc1.[Tb+3] [Tb(PMS)3(DPSO)8],⊚,◯,◯,X,◯ (dissolves up to 5 wt %),◯ (dissolves up to 5 wt %),◯ (dissolves up to 5 wt %),0.00,,
